Experimental data reported in ChEMBL document CHEMBL1135648, “Synthesis and evaluation of no-carrier-added 8-cyclopentyl-3-(3-[(18)F]fluoropropyl)-1-propylxanthine ([(18)F]CPFPX): a potent and selective A(1)-adenosine receptor antagonist for in vivo imaging” (J Med Chem, 2002).

Tests used:
[1] = test system: Mus musculus; experiment: In vivo biodistribution in NMRI (Naval Medical Research Institute) mice pancreas at the dose of 0.15-0.2 nmol at 40 min; assay type: ADME, organism-based
[2] = test system: Mus musculus; experiment: In vivo biodistribution in NMRI (Naval Medical Research Institute) mice bone at the dose of 0.15-0.2 nmol at 60 min; assay type: ADME, organism-based, Bone element; conditions: 1 h
[3] = test system: Mus musculus; experiment: In vivo biodistribution in NMRI (Naval Medical Research Institute) mice heart at the dose of 0.15-0.2 nmol at 5 min; assay type: ADME, organism-based
[4] = test system: Mus musculus; experiment: In vivo biodistribution in NMRI (Naval Medical Research Institute) mice blood at the dose of 0.15-0.2 nmol at 60 min; assay type: ADME, organism-based; conditions: 1 h
[5] = test system: Mus musculus; experiment: In vivo biodistribution in NMRI (Naval Medical Research Institute) mice brain at the dose of 0.15-0.2 nmol at 20 min; assay type: ADME, organism-based
[6] = test system: Mus musculus; experiment: In vivo biodistribution in NMRI (Naval Medical Research Institute) mice brain at the dose of 0.15-0.2 nmol at 60 min; assay type: ADME, organism-based; conditions: 1 h
[7] = test system: Mus musculus; experiment: In vivo biodistribution in NMRI (Naval Medical Research Institute) mice blood at the dose of 0.15-0.2 nmol at 5 min; assay type: ADME, organism-based
[8] = test system: Mus musculus; experiment: In vivo biodistribution in NMRI (Naval Medical Research Institute) mice brain at the dose of 0.15-0.2 nmol at 10 min; assay type: ADME, organism-based
[9] = test system: Mus musculus; experiment: In vivo biodistribution in NMRI (Naval Medical Research Institute) mice brain at the dose of 0.15-0.2 nmol at 5 min; assay type: ADME, organism-based
[10] = test system: Mus musculus; experiment: In vivo biodistribution in NMRI (Naval Medical Research Institute) mice liver at the dose of 0.15-0.2 nmol at 40 min; assay type: ADME, organism-based
[11] = test system: Mus musculus; experiment: In vivo biodistribution in NMRI (Naval Medical Research Institute) mice bone at the dose of 0.15-0.2 nmol at 10 min; assay type: ADME, organism-based, Bone element
[12] = target: T1, Adenosine receptor A1 (Bos taurus, UniProt P28190); experiment: In vitro binding affinity for Adenosine A1 receptor of bovine cortex
T1 sequence (P28190 whole entry): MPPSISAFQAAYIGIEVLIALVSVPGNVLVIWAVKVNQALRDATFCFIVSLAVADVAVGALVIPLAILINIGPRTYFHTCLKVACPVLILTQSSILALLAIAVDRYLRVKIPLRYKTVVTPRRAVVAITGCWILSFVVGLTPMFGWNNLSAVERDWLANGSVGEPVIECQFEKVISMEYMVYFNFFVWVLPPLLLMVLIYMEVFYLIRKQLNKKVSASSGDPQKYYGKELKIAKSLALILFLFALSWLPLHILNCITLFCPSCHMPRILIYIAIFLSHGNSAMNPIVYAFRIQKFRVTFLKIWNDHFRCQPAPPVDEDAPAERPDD

[13] = test system: Mus musculus; experiment: In vivo biodistribution in NMRI (Naval Medical Research Institute) mice pancreas at the dose of 0.15-0.2 nmol at 2 min; assay type: ADME, organism-based
[14] = test system: Mus musculus; experiment: In vivo biodistribution in NMRI (Naval Medical Research Institute) mice lung at the dose of 0.15-0.2 nmol at 60 min; assay type: ADME, organism-based; conditions: 1 h
[15] = test system: Mus musculus; experiment: In vivo biodistribution in NMRI (Naval Medical Research Institute) mice liver at the dose of 0.15-0.2 nmol at 5 min; assay type: ADME, organism-based
[16] = test system: Mus musculus; experiment: In vivo biodistribution in NMRI (Naval Medical Research Institute) mice bone at the dose of 0.15-0.2 nmol at 5 min; assay type: ADME, organism-based, Bone element
[17] = test system: Mus musculus; experiment: In vivo biodistribution in NMRI (Naval Medical Research Institute) mice kidney at the dose of 0.15-0.2 nmol at 20 min; assay type: ADME, organism-based
[18] = test system: Mus musculus; experiment: In vivo biodistribution in NMRI (Naval Medical Research Institute) mice spleen at the dose of 0.15-0.2 nmol at 2 min; assay type: ADME, organism-based
[19] = test system: Mus musculus; experiment: In vivo biodistribution in NMRI (Naval Medical Research Institute) mice liver at the dose of 0.15-0.2 nmol at 10 min; assay type: ADME, organism-based
[20] = test system: Mus musculus; experiment: In vivo biodistribution in NMRI (Naval Medical Research Institute) mice kidney at the dose of 0.15-0.2 nmol at 40 min; assay type: ADME, organism-based
[21] = test system: Mus musculus; experiment: In vivo biodistribution in NMRI (Naval Medical Research Institute) mice blood at the dose of 0.15-0.2 nmol at 20 min; assay type: ADME, organism-based
[22] = test system: Mus musculus; experiment: In vivo biodistribution in NMRI (Naval Medical Research Institute) mice kidney at the dose of 0.15-0.2 nmol at 5 min; assay type: ADME, organism-based
[23] = test system: Mus musculus; experiment: In vivo biodistribution in NMRI (Naval Medical Research Institute) mice lung at the dose of 0.15-0.2 nmol at 2 min; assay type: ADME, organism-based
[24] = test system: Mus musculus; experiment: In vivo biodistribution in NMRI (Naval Medical Research Institute) mice spleen at the dose of 0.15-0.2 nmol at 40 min; assay type: ADME, organism-based
[25] = test system: Mus musculus; experiment: In vivo biodistribution in NMRI (Naval Medical Research Institute) mice heart at the dose of 0.15-0.2 nmol at 40 min; assay type: ADME, organism-based
[26] = test system: Mus musculus; experiment: In vivo biodistribution in NMRI (Naval Medical Research Institute) mice blood at the dose of 0.15-0.2 nmol at 40 min; assay type: ADME, organism-based
[27] = test system: Mus musculus; experiment: In vivo biodistribution in NMRI (Naval Medical Research Institute) mice intestine at the dose of 0.15-0.2 nmol at 40 min; assay type: ADME, organism-based
[28] = test system: Mus musculus; experiment: In vivo biodistribution in NMRI (Naval Medical Research Institute) mice pancreas at the dose of 0.15-0.2 nmol at 5 min; assay type: ADME, organism-based
[29] = test system: Mus musculus; experiment: In vivo biodistribution in NMRI (Naval Medical Research Institute) mice kidney at the dose of 0.15-0.2 nmol at 10 min; assay type: ADME, organism-based
[30] = test system: Mus musculus; experiment: In vivo biodistribution in NMRI (Naval Medical Research Institute) mice heart at the dose of 0.15-0.2 nmol at 20 min; assay type: ADME, organism-based
[31] = target: T2, Adenosine receptor A1 (Homo sapiens, UniProt P30542); experiment: In vitro binding affinity for human Adenosine A1 receptor expressed in CHO-K1 cells; assay type: cell-based
T2 sequence (P30542 whole entry): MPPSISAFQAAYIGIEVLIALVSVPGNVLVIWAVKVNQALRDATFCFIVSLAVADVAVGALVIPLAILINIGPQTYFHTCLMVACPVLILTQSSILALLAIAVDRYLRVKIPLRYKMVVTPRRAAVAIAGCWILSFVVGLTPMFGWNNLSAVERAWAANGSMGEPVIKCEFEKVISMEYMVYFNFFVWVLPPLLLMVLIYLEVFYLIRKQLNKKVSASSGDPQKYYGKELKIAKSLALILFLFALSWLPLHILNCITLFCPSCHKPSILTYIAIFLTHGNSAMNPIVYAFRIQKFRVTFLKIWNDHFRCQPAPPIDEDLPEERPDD

[32] = test system: Mus musculus; experiment: In vivo biodistribution in NMRI (Naval Medical Research Institute) mice brain at the dose of 0.15-0.2 nmol at 2 min; assay type: ADME, organism-based
[33] = Ultrafiltration in human plasma; assay type: functional

CCCn1c(=O)c2nc(C3CCCC3)[nH]c2n(CCC[18F])c1=O
ID/g [1]: 3.22% | ID/g [2]: 2.27% | ID/g [3]: 3.71% | ID/g [4]: 1.55% | ID/g [5]: 2.39% | ID/g [6]: 1.55% | ID/g [7]: 6.53% | ID/g [8]: 2.44% | ID/g [9]: 2.37% | ID/g [10]: 9.61% | ID/g [11]: 1.71% | Ki [12]: 0.18 nM | ID/g [13]: 3.58% | ID/g [14]: 2.43% | ID/g [15]: 7.44% | ID/g [16]: 1.4% | ID/g [17]: 6.05% | ID/g [18]: 2.25% | ID/g [19]: 8.64% | ID/g [20]: 5.95% | ID/g [21]: 4.13% | ID/g [22]: 3.81% | ID/g [23]: 5.35% | ID/g [24]: 1.79% | ID/g [25]: 4.23% | ID/g [26]: 3.92% | ID/g [27]: 3.74% | ID/g [28]: 3.35% | ID/g [29]: 6.1% | ID/g [30]: 4.11% | Kd [31]: 1.26 nM | ID/g [32]: 2.45% | Ultrafiltration [33]: 86
